Test results reported in US20200187502A1, “MICROBIOCIDAL OXADIAZOLE DERIVATIVES” (SYNGENTA PARTICIPATIONS AG, priority 2017, published 2020).

Experiments:
[1] = system: Puccinia recondita f. Sp. Tritici; experiment: Fungicidal activity, wheat leaf disc preventative (brown rust); type: in vivo; details: foliar, 200 ppm in the applied formulation, wheat leaf segments cv. Kanzler, compared to untreated control, 7 to 9 days after application, read-out: disease control
Outline: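 Wheat cv. Kanzler leaf segments on agar were sprayed with formulated compound in water, then inoculated with spores 1 day later. Incubated at 19° C, 75% rh, 12 h light/12 h dark; percent disease control versus untreated scored 7 to 9 days after application.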

[2] = system: Puccinia recondita f. Sp. Tritici; experiment: Fungicidal activity, wheat leaf disc curative (brown rust); type: in vivo; details: foliar, 200 ppm in the applied formulation, wheat leaf segments cv. Kanzler, curative (applied 1 day after inoculation), compared to untreated control, 6 to 8 days after application, read-out: disease control
Outline: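 Read-out is percent disease control relative to untreated segments, assessed 6 to 8 days after treatment once check disease is adequate. Kanzler wheat leaf segments on agar receive fungal spores, then test compound (DMSO stock diluted in 0.025% Tween20 or water) 1 day later, under 19° C and 75% relative humidity.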

Phakopsora pachyrhizi = experiment: Fungicidal activity, soybean leaf disc preventative (Asian soybean rust); type: in vivo; details: foliar, 200 ppm in the applied formulation, soybean leaf disks, compared to untreated control, 12 to 14 days after application, read-out: disease control
Outline: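 Read-out is percent disease control relative to untreated check discs, assessed once untreated discs show adequate disease, 12 to 14 days after application. Compounds, tested at 200 ppm in the applied formulation, are sprayed onto soybean leaf discs one day before inoculation with a spore suspension.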

[3] = system: Glomerella lacenarium (Colletotrichum lacenarium); experiment: Fungicidal activity, liquid culture, cucumber preventative (anthracnose); type: cell-based; details: 20 ppm in the applied formulation, liquid culture in PDB, inhibition of growth measured photometrically 3 to 4 days after application, compared to untreated control, read-out: disease control
Outline: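 Photometric measurement of fungal growth inhibition 3 to 4 days after application gives percent activity relative to untreated check. Conidia were suspended in potato dextrose broth and combined with DMSO compound solutions; incubation at 24° C.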

COCCC(=O)N(Cc1ccc(-c2noc(C(F)(F)F)n2)s1)C1CC1 [Compound 4.55, N-cyclopropyl-3-methoxy-N-[[5-[5-(trifluoromethyl)-1,2,4-oxadiazol-3-yl]-2-thienyl]methyl]propanamide]
≥ 80%: pest or weed control at 200 ppm [1] | pest or weed control at 200 ppm [2] | pest or weed control at 200 ppm (Phakopsora pachyrhizi) | inhibition of growth at 20 ppm [3]

CCC(=O)N(Cc1ccc(-c2noc(C(F)(F)F)n2)s1)C1CC1 [Compound 4.56, N-cyclopropyl-N-[[5-[5-(trifluoromethyl)-1,2,4-oxadiazol-3-yl]-2-thienyl]methyl]propanamide]
≥ 80%: pest or weed control at 200 ppm [1] | pest or weed control at 200 ppm [2] | pest or weed control at 200 ppm (Phakopsora pachyrhizi) | inhibition of growth at 20 ppm [3]

COCCCC(=O)N(Cc1ccc(-c2noc(C(F)(F)F)n2)s1)C1CC1 [Compound 4.58, N-cyclopropyl-4-methoxy-N-[[5-[5-(trifluoromethyl)-1,2,4-oxadiazol-3-yl]-2-thienyl]methyl]butanamide]
≥ 80%: pest or weed control at 200 ppm [1] | pest or weed control at 200 ppm [2] | pest or weed control at 200 ppm (Phakopsora pachyrhizi) | inhibition of growth at 20 ppm [3]

COCCC(=O)N(Cc1ccc(-c2noc(C(F)(F)F)n2)s1)OCC(F)F [Compound 4.64, N-(2,2-difluoroethoxy)-3-methoxy-N-[[5-[5-(trifluoromethyl)-1,2,4-oxadiazol-3-yl]-2-thienyl]methyl]propanamide]
≥ 80%: pest or weed control at 200 ppm [1] | pest or weed control at 200 ppm [2] | pest or weed control at 200 ppm (Phakopsora pachyrhizi) | inhibition of growth at 20 ppm [3]

CCN(Cc1ccc(-c2noc(C(F)(F)F)n2)s1)C(=O)N(C)CC#N [Compound 4.70, 1-(cyanomethyl)-3-ethyl-1-methyl-3-[[5-[5-(trifluoromethyl)-1,2,4-oxadiazol-3-yl]-2-thienyl]methyl]urea]
≥ 80%: pest or weed control at 200 ppm [1] | pest or weed control at 200 ppm [2] | pest or weed control at 200 ppm (Phakopsora pachyrhizi) | inhibition of growth at 20 ppm [3]

C=CCN(C)C(=O)N(CC)Cc1ccc(-c2noc(C(F)(F)F)n2)s1 [Compound 4.71, 1-allyl-3-ethyl-1-methyl-3-[[5-[5-(trifluoromethyl)-1,2,4-oxadiazol-3-yl]-2-thienyl]methyl]urea]
≥ 80%: pest or weed control at 200 ppm [1] | pest or weed control at 200 ppm [2] | pest or weed control at 200 ppm (Phakopsora pachyrhizi) | inhibition of growth at 20 ppm [3]

CCN(Cc1ccc(-c2noc(C(F)(F)F)n2)s1)C(=O)NCCOC [Compound 4.72, 1-ethyl-3-(2-methoxyethyl)-1-[[5-[5-(trifluoromethyl)-1,2,4-oxadiazol-3-yl]-2-thienyl]methyl]urea]
≥ 80%: pest or weed control at 200 ppm [1] | pest or weed control at 200 ppm [2] | pest or weed control at 200 ppm (Phakopsora pachyrhizi) | inhibition of growth at 20 ppm [3]

C#CCNC(=O)N(CC)Cc1ccc(-c2noc(C(F)(F)F)n2)s1 [Compound 4.75, 1-ethyl-3-prop-2-ynyl-1-[[5-[5-(trifluoromethyl)-1,2,4-oxadiazol-3-yl]-2-thienyl]methyl]urea]
≥ 80%: pest or weed control at 200 ppm [1] | pest or weed control at 200 ppm [2] | pest or weed control at 200 ppm (Phakopsora pachyrhizi) | inhibition of growth at 20 ppm [3]

CN(CC#N)C(=O)N(C)Cc1ccc(-c2noc(C(F)(F)F)n2)s1 [Compound 4.76, 1-(cyanomethyl)-1,3-dimethyl-3-[[5-[5-(trifluoromethyl)-1,2,4-oxadiazol-3-yl]-2-thienyl]methyl]urea]
≥ 80%: pest or weed control at 200 ppm [1] | pest or weed control at 200 ppm [2] | pest or weed control at 200 ppm (Phakopsora pachyrhizi) | inhibition of growth at 20 ppm [3]

C=CCN(C)C(=O)N(C)Cc1ccc(-c2noc(C(F)(F)F)n2)s1 [Compound 4.77, 1-allyl-1,3-dimethyl-3-[[5-(5-(trifluoromethyl)-1,2,4-oxadiazol-3-yl]-2-thienyl]methyl]urea]
≥ 80%: pest or weed control at 200 ppm [1] | pest or weed control at 200 ppm [2] | pest or weed control at 200 ppm (Phakopsora pachyrhizi) | inhibition of growth at 20 ppm [3]

COCCNC(=O)N(C)Cc1ccc(-c2noc(C(F)(F)F)n2)s1 [Compound 4.78, 3-(2-methoxyethyl)-1-methyl-1-[[5-[5-(trifluoromethyl)-1,2,4-oxadiazol-3-yl]-2-thienyl]methyl]urea]
≥ 80%: pest or weed control at 200 ppm [1] | pest or weed control at 200 ppm [2] | pest or weed control at 200 ppm (Phakopsora pachyrhizi) | inhibition of growth at 20 ppm [3]

CCN(CC)C(=O)N(C)Cc1ccc(-c2noc(C(F)(F)F)n2)s1 [Compound 4.79, 1,1-diethyl-3-methyl-3-[[5-[5-(trifluoromethyl)-1,2,4-oxadiazol-3-yl]-2-thienyl]methyl]urea]
≥ 80%: pest or weed control at 200 ppm [1] | pest or weed control at 200 ppm [2] | pest or weed control at 200 ppm (Phakopsora pachyrhizi) | inhibition of growth at 20 ppm [3]

C#CCNC(=O)N(C)Cc1ccc(-c2noc(C(F)(F)F)n2)s1 [Compound 4.81, 1-methyl-3-prop-2-ynyl-1-[[5-[5-(trifluoromethyl)-1,2,4-oxadiazol-3-yl]-2-thienyl]methyl]urea]
≥ 80%: pest or weed control at 200 ppm [1] | pest or weed control at 200 ppm [2] | pest or weed control at 200 ppm (Phakopsora pachyrhizi) | inhibition of growth at 20 ppm [3]

CCNC(=O)N(Cc1ccc(-c2noc(C(F)(F)F)n2)s1)C(C)C [Compound 4.83, 3-ethyl-1-isopropyl-1-[[5-[5-(trifluoromethyl)-1,2,4-oxadiazol-3-yl]-2-thienyl]methyl]urea]
≥ 80%: pest or weed control at 200 ppm [1] | pest or weed control at 200 ppm [2] | pest or weed control at 200 ppm (Phakopsora pachyrhizi) | inhibition of growth at 20 ppm [3]

C#CCNC(=O)N(Cc1ccc(-c2noc(C(F)(F)F)n2)s1)C(C)C [Compound 4.85, 1-isopropyl-3-prop-2-ynyl-1-[[5-[5-(trifluoromethyl)-1,2,4-oxadiazol-3-yl]-2-thienyl]methyl]urea]
≥ 80%: pest or weed control at 200 ppm [1] | pest or weed control at 200 ppm [2] | pest or weed control at 200 ppm (Phakopsora pachyrhizi) | inhibition of growth at 20 ppm [3]

CCNC(=O)N(Cc1ccc(-c2noc(C(F)(F)F)n2)s1)C1CC1 [Compound 4.87, 1-cyclopropyl-3-ethyl-1-[[5-[5-(trifluoromethyl)-1,2,4-oxadiazol-3-yl]-2-thienyl]methyl]urea]
≥ 80%: pest or weed control at 200 ppm [1] | pest or weed control at 200 ppm [2] | pest or weed control at 200 ppm (Phakopsora pachyrhizi) | inhibition of growth at 20 ppm [3]

C=CCN(C)C(=O)N(Cc1ccc(-c2noc(C(F)(F)F)n2)s1)C1CC1 [Compound 4.88, 1-allyl-3-cyclopropyl-1-methyl-3-[[5-[5-(trifluoromethyl)-1,2,4-oxadiazol-3-yl]-2-thienyl]methyl]urea]
≥ 80%: pest or weed control at 200 ppm [1] | pest or weed control at 200 ppm [2] | pest or weed control at 200 ppm (Phakopsora pachyrhizi) | inhibition of growth at 20 ppm [3]

COCCNC(=O)N(Cc1ccc(-c2noc(C(F)(F)F)n2)s1)C1CC1 [Compound 4.89, 1-cyclopropyl-3-(2-methoxyethyl)-1-[[5-[5-(trifluoromethyl)-1,2,4-oxadiazol-3-yl]-2-thienyl]methyl]urea]
≥ 80%: pest or weed control at 200 ppm [1] | pest or weed control at 200 ppm [2] | pest or weed control at 200 ppm (Phakopsora pachyrhizi) | inhibition of growth at 20 ppm [3]

C#CCNC(=O)N(Cc1ccc(-c2noc(C(F)(F)F)n2)s1)C1CC1 [Compound 4.92, 1-cyclopropyl-3-prop-2-ynyl-1-[[5-[5-(trifluoromethyl)-1,2,4-oxadiazol-3-yl]-2-thienyl]methyl]urea]
≥ 80%: pest or weed control at 200 ppm [1] | pest or weed control at 200 ppm [2] | pest or weed control at 200 ppm (Phakopsora pachyrhizi) | inhibition of growth at 20 ppm [3]

C#CCNC(=O)N(Cc1ccc(-c2noc(C(F)(F)F)n2)s1)OCC(F)F [Compound 4.93, 1-(2,2-difluoroethoxy)-3-prop-2-ynyl-1-[[5-[5-(trifluoromethyl)-1,2,4-oxadiazol-3-yl]-2-thienyl]methyl]urea]
≥ 80%: pest or weed control at 200 ppm [1] | pest or weed control at 200 ppm [2] | pest or weed control at 200 ppm (Phakopsora pachyrhizi) | inhibition of growth at 20 ppm [3]
